How the values were obtained:
Assay type in all cases: in vivo
[1] = system: pigweed (Amaranthus retroflexus); assay: Test A preemergence; conditions: Amaranthus retroflexus, pre-emergence, 240 h
[2] = system: barnyardgrass (Echinochloa crus-galli); assay: Test A preemergence; conditions: Echinochloa crus-galli, pre-emergence, 240 h
In short: (§1)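 In a loam soil and sand blend, planted seeds got a preemergence directed soil spray, and young plants at the one- to two-leaf stage, 2–10 cm high, got a postemergence application; ~10 d greenhouse hold; injury rated visually, 0 = none, 100 = complete control.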

[3] = system: ragweed (common ragweed, Ambrosia elatior); assay: Test A preemergence; conditions: Ambrosia artemisiifolia, pre-emergence, 240 h
In short: as §1

Kochia (Kochia scoparia) [4] = assay: Test A preemergence; conditions: Bassia scoparia, pre-emergence, 240 h
In short: as §1

[5] = system: ryegrass, Italian (Italian ryegrass, Lolium multiflorum); assay: Test A preemergence; conditions: Lolium multiflorum, pre-emergence, 240 h
In short: as §1

[6] = system: giant foxtail (Setaria faberii); assay: Test A preemergence; conditions: Setaria faberi, pre-emergence, 240 h
In short: as §1

corn (Zea mays) = assay: Test A postemergence; conditions: Zea mays, post-emergence, 240 h, 125 g ai/ha, postemergence, visual injury rating after approximately 10 d; read-out: Corn plant response rating (0 to 100 scale, 0 no effect, 100 complete control)
In short: as §1

[7] = system: wheat (Triticum aestivum); assay: Test A postemergence; conditions: Triticum aestivum, post-emergence, 240 h, 125 g ai/ha, postemergence, visual injury rating after approximately 10 d; read-out: Wheat plant response rating (0 to 100 scale, 0 no effect, 100 complete control)
In short: as §1

[8] = system: pigweed (Amaranthus retroflexus); assay: Test A postemergence; conditions: Amaranthus retroflexus, post-emergence, 240 h, 125 g ai/ha, postemergence, visual injury rating after approximately 10 d; read-out: Pigweed plant response rating (0 to 100 scale, 0 no effect, 100 complete control)
In short: as §1

[9] = system: barnyardgrass (Echinochloa crus-galli); assay: Test A postemergence; conditions: Echinochloa crus-galli, post-emergence, 240 h, 125 g ai/ha, postemergence, visual injury rating after approximately 10 d; read-out: Barnyardgrass plant response rating (0 to 100 scale, 0 no effect, 100 complete control)
In short: as §1

[10] = system: Galium (catchweed bedstraw, Galium aparine); assay: Test A postemergence; conditions: Galium, post-emergence, 240 h, 125 g ai/ha, postemergence, visual injury rating after approximately 10 d; read-out: Galium plant response rating (0 to 100 scale, 0 no effect, 100 complete control)
In short: as §1

[11] = system: blackgrass (Alopecurus myosuroides); assay: Test A postemergence; conditions: Alopecurus myosuroides, post-emergence, 240 h, 125 g ai/ha, postemergence, visual injury rating after approximately 10 d; read-out: Blackgrass plant response rating (0 to 100 scale, 0 no effect, 100 complete control)
In short: as §1

[12] = system: ragweed (common ragweed, Ambrosia elatior); assay: Test A postemergence; conditions: Ambrosia artemisiifolia, post-emergence, 240 h, 125 g ai/ha, postemergence, visual injury rating after approximately 10 d; read-out: Ragweed plant response rating (0 to 100 scale, 0 no effect, 100 complete control)
In short: as §1

Kochia (Kochia scoparia) [13] = assay: Test A postemergence; conditions: Bassia scoparia, post-emergence, 240 h, 125 g ai/ha, postemergence, visual injury rating after approximately 10 d; read-out: Kochia plant response rating (0 to 100 scale, 0 no effect, 100 complete control)
In short: as §1

[14] = system: ryegrass, Italian (Italian ryegrass, Lolium multiflorum); assay: Test A postemergence; conditions: Lolium multiflorum, post-emergence, 240 h, 125 g ai/ha, postemergence, visual injury rating after approximately 10 d; read-out: Ryegrass, Italian plant response rating (0 to 100 scale, 0 no effect, 100 complete control)
In short: as §1

[15] = system: giant foxtail (Setaria faberii); assay: Test A postemergence; conditions: Setaria faberi, post-emergence, 240 h, 125 g ai/ha, postemergence, visual injury rating after approximately 10 d; read-out: Foxtail, Giant plant response rating (0 to 100 scale, 0 no effect, 100 complete control)
In short: as §1

**Q.** Which pest or weed control at 125 g/ha ([1]; 125 g ai/ha, preemergence, 0 to 100 scale where 0 is no effect and 100 is complete control, read-out: Pigweed plant response rating) does the source give for `O=C1NC[C@H](c2cncc(C(F)(F)F)c2)[C@H]1C(=O)Nc1ccccc1F` [Compound 887] here?
**A.** 0%

**Q.** And the pest or weed control at 500 g/ha ([1]; 500 g ai/ha, Preemergence, visual injury vs untreated controls after approximately 10 d, read-out: Pigweed plant response rating (0 to 100 scale where 0 is no effect and 100 is complete control))?
**A.** 0%

**Q.** What about the pest or weed control at 125 g/ha ([2]; 125 g ai/ha, preemergence, 0 to 100 scale where 0 is no effect and 100 is complete control, read-out: Barnyardgrass plant response rating) of the same molecule?
**A.** 90%

**Q.** What about the pest or weed control at 500 g/ha ([2]; 500 g ai/ha, Preemergence, visual injury vs untreated controls after approximately 10 d, read-out: Barnyardgrass plant response rating (0 to 100 scale where 0 is no effect and 100 is complete control)) of the same molecule?
**A.** 90%

**Q.** What about the pest or weed control at 125 g/ha ([3]; 125 g ai/ha, preemergence, 0 to 100 scale where 0 is no effect and 100 is complete control, read-out: Ragweed plant response rating) of the same molecule?
**A.** 0%

**Q.** And the pest or weed control at 500 g/ha ([3]; 500 g ai/ha, Preemergence, visual injury vs untreated controls after approximately 10 d, read-out: Ragweed plant response rating (0 to 100 scale where 0 is no effect and 100 is complete control))?
**A.** 0%

**Q.** What about the pest or weed control at 125 g/ha (Kochia (Kochia scoparia) [4]; 125 g ai/ha, preemergence, 0 to 100 scale where 0 is no effect and 100 is complete control, read-out: Kochia plant response rating) of the same molecule?
**A.** 0%

**Q.** And the pest or weed control at 500 g/ha (Kochia (Kochia scoparia) [4]; 500 g ai/ha, Preemergence, visual injury vs untreated controls after approximately 10 d, read-out: Kochia plant response rating (0 to 100 scale where 0 is no effect and 100 is complete control))?
**A.** 20%

**Q.** And the pest or weed control at 125 g/ha ([5]; 125 g ai/ha, preemergence, 0 to 100 scale where 0 is no effect and 100 is complete control, read-out: Ryegrass, Italian plant response rating)?
**A.** 0%

**Q.** And the pest or weed control at 500 g/ha ([5]; 500 g ai/ha, Preemergence, visual injury vs untreated controls after approximately 10 d, read-out: Ryegrass, Italian plant response rating (0 to 100 scale where 0 is no effect and 100 is complete control))?
**A.** 0%

**Q.** And the pest or weed control at 125 g/ha ([6]; 125 g ai/ha, preemergence, 0 to 100 scale where 0 is no effect and 100 is complete control, read-out: Foxtail, Giant plant response rating)?
**A.** 80%

**Q.** And the pest or weed control at 500 g/ha ([6]; 500 g ai/ha, Preemergence, visual injury vs untreated controls after approximately 10 d, read-out: Foxtail, Giant plant response rating (0 to 100 scale where 0 is no effect and 100 is complete control))?
**A.** 90%

**Q.** And the plant injury at 125 g/ha (corn (Zea mays))?
**A.** 0%

**Q.** And the plant injury at 125 g/ha [7]?
**A.** 0%

**Q.** What about the pest or weed control at 125 g/ha [8] of the same molecule?
**A.** 0%

**Q.** And the pest or weed control at 125 g/ha [9]?
**A.** 80%

**Q.** What about the pest or weed control at 125 g/ha [10] of the same molecule?
**A.** 0%

**Q.** What about the pest or weed control at 125 g/ha [11] of the same molecule?
**A.** 0%

**Q.** What about the pest or weed control at 125 g/ha [12] of the same molecule?
**A.** 0%

**Q.** What about the pest or weed control at 125 g/ha (Kochia (Kochia scoparia) [13]) of the same molecule?
**A.** 0%

**Q.** What about the pest or weed control at 125 g/ha [14] of the same molecule?
**A.** 0%

**Q.** What about the pest or weed control at 125 g/ha [15] of the same molecule?
**A.** 70%

Source: US12077503B2, “Substituted cyclic amides and their use as herbicides” (FMC CORPORATION, priority 2015, dated 2024)
